# Reference: ChEMBL document CHEMBL5226384, “Total Syntheses, Absolute Configurations, and Cytotoxicity Evaluation of Ugonstilbenes A, B, and C from the Rhizomes of Helminthostachys zeylanica” (J Nat Prod, 2023)
# Legend:
# [1] = Cytotoxicity against fibroblast (unknown origin) cells assessed as reduction in cell viability incubated for 6 hrs by SRB assay; type: toxicity, cell-based
# HT-29 = test: Cytotoxicity against human HT-29 cells assessed as reduction in cell viability incubated for 6 hrs by SRB assay; type: functional, cell-based; settings: HT-29, 6 h
# MCF7 = test: Cytotoxicity against human MCF7 cells assessed as reduction in cell viability incubated for 6 hrs by SRB assay; type: functional, cell-based; settings: MCF7, 6 h
# NCI-H460 = test: Cytotoxicity against human NCI-H460 cells assessed as reduction in cell viability incubated for 6 hrs by SRB assay; type: functional, cell-based; settings: NCI-H460, 6 h
# CCRF-CEM = test: Cytotoxicity against human CCRF-CEM cells assessed as reduction in cell viability incubated for 6 hrs by SRB assay; type: functional, cell-based
structure (smiles),measurement,setting,value
CC1=CCCC(C)(C)[C@@H]1Cc1cc(/C=C/c2cc(O)cc(O)c2)ccc1O,IC50 at 6 h,[1],7100 nM
same,IC50,HT-29,5200 nM
same,IC50,MCF7,4100 nM
same,IC50,NCI-H460,5500 nM
same,IC50,CCRF-CEM,3000 nM
CC1=CCCC(C)(C)[C@H]1Cc1cc(/C=C/c2cc(O)cc(O)c2)ccc1O,IC50 at 6 h,[1],7400 nM
same,IC50,HT-29,5000 nM
same,IC50,MCF7,4400 nM
same,IC50,NCI-H460,6000 nM
same,IC50,CCRF-CEM,2800 nM
CC1(C)CCC[C@]2(C)Oc3cc(/C=C/c4ccc(O)cc4)cc(O)c3C[C@H]12,IC50 at 6 h,[1],6600 nM
same,IC50,HT-29,3600 nM
same,IC50,MCF7,1900 nM
same,IC50,NCI-H460,1400 nM
same,IC50,CCRF-CEM,1700 nM
CC1(C)CCC[C@]2(C)Oc3ccc(/C=C/c4cc(O)cc(O)c4)cc3C[C@H]12,IC50 at 6 h,[1],8000 nM
same,IC50,HT-29,3300 nM
same,IC50,MCF7,1700 nM
same,IC50,NCI-H460,2200 nM
same,IC50,CCRF-CEM,1400 nM
CC1=CCCC(C)(C)[C@H]1Cc1c(O)cc(/C=C/c2ccc(O)cc2)cc1O,IC50 at 6 h,[1],6600 nM
same,IC50,HT-29,2500 nM
same,IC50,MCF7,1700 nM
same,IC50,NCI-H460,1700 nM
same,IC50,CCRF-CEM,820 nM
CC1(C)CCC[C@@]2(C)Oc3cc(/C=C/c4ccc(O)cc4)cc(O)c3C[C@@H]12,IC50 at 6 h,[1],7100 nM
same,IC50,HT-29,2200 nM
same,IC50,MCF7,1400 nM
same,IC50,NCI-H460,1700 nM
same,IC50,CCRF-CEM,1100 nM
CC1=CCCC(C)(C)[C@@H]1Cc1c(O)cc(/C=C/c2ccc(O)cc2)cc1O,IC50 at 6 h,[1],6600 nM
same,IC50,HT-29,4400 nM
same,IC50,MCF7,8000 nM
same,IC50,NCI-H460,1700 nM
same,IC50,CCRF-CEM,270 nM
CC1(C)CCC[C@@]2(C)Oc3ccc(/C=C/c4cc(O)cc(O)c4)cc3C[C@@H]12,IC50 at 6 h,[1],6900 nM
same,IC50,HT-29,2800 nM
same,IC50,MCF7,2800 nM
same,IC50,NCI-H460,2500 nM
same,IC50,CCRF-CEM,1400 nM
COc1cccc2c1C(=O)c1c(O)c3c(c(O)c1C2=O)C[C@@](O)(C(=O)CO)C[C@@H]3O[C@H]1C[C@H](N)[C@H](O)[C@H](C)O1 [DOXORUBICIN],IC50 at 6 h,[1],67000 nM
same,IC50,HT-29,120 nM
same,IC50,MCF7,270 nM
same,IC50,NCI-H460,10 nM
same,IC50,CCRF-CEM,90 nM
Oc1ccc(/C=C/c2cc(O)cc(O)c2)cc1 [RESVERATROL],IC50 at 6 h,[1],218000 nM
same,IC50,HT-29,120000 nM
same,IC50,MCF7,135000 nM
same,IC50,NCI-H460,58000 nM
same,IC50,CCRF-CEM,900 nM
